Tests used:
[1] = Oral bioavailability in rat at 2 mg/kg; format: ADME, organism-based; conditions: in vivo
[2] = target: Beta-3 adrenergic receptor (Macaca mulatta, UniProt Q28524); experiment: Agonist activity at rhesus monkey beta3 adrenergic receptor expressed in CHO cells assessed as accumulation of cAMP after 30 mins by TR-FRET assay; format: functional, cell-based
[3] = Drug recovery in bile duct cannulated rat urine at 5 mg/kg, iv measured over 48 hrs; format: ADME, organism-based; conditions: read-out: Drug recovery
[4] = Intrinsic clearance in dog liver microsomes; format: ADME, Canis lupus familiaris; conditions: read-out: CLH
[5] = Plasma clearance in cynomolgus monkey at 0.5 mg/kg, iv or 2 mg/kg, po; format: ADME, organism-based, Macaca fascicularis
[6] = Solubility of the compound in simulated gastric fluid; format: ADME
[7] = Drug recovery in bile duct cannulated rat feces at 5 mg/kg, iv measured over 48 hrs; format: ADME, organism-based; conditions: faeces, read-out: Drug recovery
Canis familiaris [8] = experiment: Dose normalized fAUC in dog at 2 mg/kg, po; format: ADME, organism-based, Canis lupus familiaris; conditions: in vivo
Rattus norvegicus [9] = experiment: Dose normalized total AUC in rat at 2 mg/kg, po; format: ADME, organism-based; conditions: in vivo
Cynomolgus monkey [10] = experiment: Toxicity in cynomolgus monkey assessed as effect on electrocadiograms measured up to 9 months; format: organism-based, Macaca fascicularis; conditions: in vivo
[11] = Induction of phospholidosis in human HepG2 cells incubated overnight by […] in presence of fluorescent labeled phospholipid probe NBD-PE; format: cell-based; conditions: read-out: A50
[12] = Chemical stability of the compound under forced degradation condition; format: physicochemical
[13] = Plasma clearance in dog at 0.5 mg/kg, iv or 2 mg/kg, po; format: ADME, organism-based, Canis lupus familiaris
[14] = Drug recovery in bile duct cannulated rat bile at 5 mg/kg, iv measured over 48 hrs; format: ADME, organism-based; conditions: read-out: Drug recovery
[15] = target: Beta-3 adrenergic receptor (Rattus norvegicus) (UniProt P26255); experiment: Agonist activity at rat beta3 adrenergic receptor expressed in CHO cells assessed as accumulation of cAMP after 30 mins by TR-FRET assay relative to (R)-(-)-isoproterenol; format: functional, cell-based
Beta-3 adrenergic receptor (Rattus norvegicus), sequence (P26255 whole entry): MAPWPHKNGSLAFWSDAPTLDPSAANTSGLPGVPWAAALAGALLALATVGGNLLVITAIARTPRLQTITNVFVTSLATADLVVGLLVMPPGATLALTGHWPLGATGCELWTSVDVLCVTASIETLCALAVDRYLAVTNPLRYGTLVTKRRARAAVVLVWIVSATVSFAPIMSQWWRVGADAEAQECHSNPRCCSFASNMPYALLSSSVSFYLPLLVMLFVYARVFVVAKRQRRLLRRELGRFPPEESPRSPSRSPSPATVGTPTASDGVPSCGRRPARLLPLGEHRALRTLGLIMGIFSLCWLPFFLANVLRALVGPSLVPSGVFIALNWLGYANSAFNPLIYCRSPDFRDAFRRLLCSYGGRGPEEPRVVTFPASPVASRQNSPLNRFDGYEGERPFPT

[16] = Stability in rat plasma assessed as parent compound remaining at 24 hrs by LC-MS analysis; format: ADME, cell-free; conditions: read-out: Stability
[17] = Drug recovery in bile duct cannulated rat bile at 10 mg/kg, po measured over 48 hrs; format: ADME, organism-based; conditions: read-out: Drug recovery
[18] = Intrinsic clearance in rat liver microsomes; format: ADME; conditions: read-out: CLH
[19] = target: T1, Beta-3 adrenergic receptor (Homo sapiens, UniProt P13945); experiment: Agonist activity at human adrenergic beta3 receptor expressed in CHO cells assessed as accumulation of cAMP after 30 mins by TR-FRET assay in presence of 40% serum; format: functional, cell-based
Target sequence in this assay (P13945 whole entry): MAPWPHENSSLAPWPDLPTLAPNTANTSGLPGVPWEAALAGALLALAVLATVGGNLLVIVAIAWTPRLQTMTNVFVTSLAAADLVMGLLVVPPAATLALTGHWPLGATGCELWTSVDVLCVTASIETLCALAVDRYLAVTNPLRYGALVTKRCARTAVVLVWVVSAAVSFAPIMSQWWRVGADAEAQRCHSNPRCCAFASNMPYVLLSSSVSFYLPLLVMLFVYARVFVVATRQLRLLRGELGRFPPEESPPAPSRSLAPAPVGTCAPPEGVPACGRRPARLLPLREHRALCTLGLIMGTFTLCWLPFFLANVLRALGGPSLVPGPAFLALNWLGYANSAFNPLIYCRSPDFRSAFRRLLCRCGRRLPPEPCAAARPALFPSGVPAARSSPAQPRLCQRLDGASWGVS

[20] = Intrinsic clearance in rhesus monkey liver microsomes; format: ADME, Macaca mulatta; conditions: read-out: CLH
[21] = target: Sodium channel protein type 2 subunit alpha (Homo sapiens, UniProt Q99250); experiment: Inhibition of human Nav1.2 channel expressed in Xenopus oocytes by two-intracellular microelectrode voltage clamp method; format: cell-based
[22] = Drug recovery in bile duct cannulated rat feces at 10 mg/kg, po measured over 48 hrs; format: ADME, organism-based; conditions: faeces, read-out: Drug recovery
[23] = target: Beta-3 adrenergic receptor (Rattus norvegicus, UniProt P26255); experiment: Agonist activity at rat beta3 adrenergic receptor expressed in CHO cells assessed as accumulation of cAMP after 30 mins by TR-FRET assay in presence of 40% serum; format: functional, cell-based
Beta-3 adrenergic receptor (Rattus norvegicus, UniProt P26255), sequence (P26255 whole entry): as the sequence (P26255 whole entry) above

Canis familiaris [24] = experiment: Dose normalized total AUC in dog at 2 mg/kg, po; format: ADME, organism-based, Canis lupus familiaris; conditions: in vivo
Rhesus monkey = experiment: Dose normalized fAUC in rhesus monkey at 2 mg/kg, po; format: ADME, organism-based, Macaca mulatta; conditions: in vivo
[25] = target: Beta-3 adrenergic receptor (Canis lupus familiaris, UniProt O02662); experiment: Agonist activity at dog beta3 adrenergic receptor expressed in CHO cells assessed as accumulation of cAMP after 30 mins by TR-FRET assay; format: functional, cell-based
Beta-3 adrenergic receptor (Canis lupus familiaris, UniProt O02662), sequence (O02662 whole entry): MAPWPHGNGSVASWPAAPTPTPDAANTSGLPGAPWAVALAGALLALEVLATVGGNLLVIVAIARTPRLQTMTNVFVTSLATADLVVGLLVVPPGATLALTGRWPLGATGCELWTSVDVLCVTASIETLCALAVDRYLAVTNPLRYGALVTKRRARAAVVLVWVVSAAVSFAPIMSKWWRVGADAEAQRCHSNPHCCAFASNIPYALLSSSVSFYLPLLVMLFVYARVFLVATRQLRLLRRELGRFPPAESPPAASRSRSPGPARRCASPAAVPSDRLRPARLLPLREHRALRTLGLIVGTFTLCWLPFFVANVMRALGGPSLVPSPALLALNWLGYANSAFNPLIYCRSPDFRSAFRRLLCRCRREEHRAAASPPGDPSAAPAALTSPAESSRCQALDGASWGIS

Cynomolgus monkey [26] = experiment: Dose normalized total AUC in cynomolgus monkey at 2 mg/kg, po; format: ADME, organism-based, Macaca fascicularis; conditions: in vivo
[27] = target: Voltage-gated inwardly rectifying potassium channel KCNH2 (Homo sapiens, UniProt Q12809); experiment: Binding affinity to human ERG channel
Voltage-gated inwardly rectifying potassium channel KCNH2, sequence (Q12809 whole entry): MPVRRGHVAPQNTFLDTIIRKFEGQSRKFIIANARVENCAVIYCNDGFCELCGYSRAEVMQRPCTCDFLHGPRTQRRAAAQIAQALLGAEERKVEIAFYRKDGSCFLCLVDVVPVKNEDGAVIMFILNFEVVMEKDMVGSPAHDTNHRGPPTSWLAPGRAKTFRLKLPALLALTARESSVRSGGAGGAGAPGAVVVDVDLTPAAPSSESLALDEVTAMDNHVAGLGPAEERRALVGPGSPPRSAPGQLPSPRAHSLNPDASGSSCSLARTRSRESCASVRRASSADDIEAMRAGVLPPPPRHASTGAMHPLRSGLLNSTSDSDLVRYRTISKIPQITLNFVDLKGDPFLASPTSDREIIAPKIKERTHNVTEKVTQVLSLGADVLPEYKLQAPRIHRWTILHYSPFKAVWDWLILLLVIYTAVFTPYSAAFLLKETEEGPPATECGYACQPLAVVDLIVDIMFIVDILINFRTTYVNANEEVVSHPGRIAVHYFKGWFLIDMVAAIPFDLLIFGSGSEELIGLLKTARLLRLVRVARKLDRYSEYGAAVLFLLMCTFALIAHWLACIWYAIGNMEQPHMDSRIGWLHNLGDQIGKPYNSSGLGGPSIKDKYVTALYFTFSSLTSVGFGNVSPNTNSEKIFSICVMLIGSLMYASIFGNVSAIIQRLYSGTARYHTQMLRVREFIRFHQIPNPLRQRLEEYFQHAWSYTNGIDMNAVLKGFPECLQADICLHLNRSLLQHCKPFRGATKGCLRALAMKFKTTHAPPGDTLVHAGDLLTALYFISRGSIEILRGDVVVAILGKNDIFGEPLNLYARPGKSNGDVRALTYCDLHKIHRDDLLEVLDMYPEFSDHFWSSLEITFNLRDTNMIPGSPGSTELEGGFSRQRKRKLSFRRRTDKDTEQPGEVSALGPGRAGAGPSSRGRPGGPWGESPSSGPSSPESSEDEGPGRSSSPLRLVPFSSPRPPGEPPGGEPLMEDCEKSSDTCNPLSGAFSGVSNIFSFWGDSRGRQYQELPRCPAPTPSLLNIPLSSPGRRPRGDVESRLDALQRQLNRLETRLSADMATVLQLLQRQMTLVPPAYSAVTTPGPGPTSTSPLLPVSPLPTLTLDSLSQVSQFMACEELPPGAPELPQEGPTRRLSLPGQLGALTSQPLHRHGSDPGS

[28] = Oral bioavailability in cynomolgus monkey at 2 mg/kg; format: ADME, organism-based, Macaca fascicularis; conditions: in vivo
[29] = Half life in rhesus monkey at 0.5 mg/kg, iv or 2 mg/kg, po; format: ADME, organism-based, Macaca mulatta; conditions: in vivo
Cytochrome P450 3A4 [30] = target: T2, Cytochrome P450 3A4 (Homo sapiens, UniProt P08684); experiment: Inhibition of CYP3A4 in human liver microsomes assessed as testosterone 6beta-hydroxylation; format: ADME
T2 sequence (P08684 whole entry): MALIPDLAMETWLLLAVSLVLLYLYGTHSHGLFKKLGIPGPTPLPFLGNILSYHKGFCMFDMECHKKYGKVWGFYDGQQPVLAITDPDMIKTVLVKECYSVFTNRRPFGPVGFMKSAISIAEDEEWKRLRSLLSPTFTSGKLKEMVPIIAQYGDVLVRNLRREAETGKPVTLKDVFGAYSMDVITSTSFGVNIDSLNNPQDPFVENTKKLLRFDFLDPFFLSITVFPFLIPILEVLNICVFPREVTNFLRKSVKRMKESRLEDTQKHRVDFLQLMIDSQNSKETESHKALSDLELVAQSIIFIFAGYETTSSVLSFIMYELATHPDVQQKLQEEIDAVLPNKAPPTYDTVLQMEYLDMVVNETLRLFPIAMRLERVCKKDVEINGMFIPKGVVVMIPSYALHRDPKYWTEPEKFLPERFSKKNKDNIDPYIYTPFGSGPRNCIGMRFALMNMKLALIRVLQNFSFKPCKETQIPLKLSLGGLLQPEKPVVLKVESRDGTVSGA

Cytochrome P450 2B6 = Cytochrome P450 2B6 (Homo sapiens, UniProt P20813); experiment: Inhibition of CYP2B6 in human liver microsomes; format: ADME
Cytochrome P450 2B6, sequence (P20813 whole entry): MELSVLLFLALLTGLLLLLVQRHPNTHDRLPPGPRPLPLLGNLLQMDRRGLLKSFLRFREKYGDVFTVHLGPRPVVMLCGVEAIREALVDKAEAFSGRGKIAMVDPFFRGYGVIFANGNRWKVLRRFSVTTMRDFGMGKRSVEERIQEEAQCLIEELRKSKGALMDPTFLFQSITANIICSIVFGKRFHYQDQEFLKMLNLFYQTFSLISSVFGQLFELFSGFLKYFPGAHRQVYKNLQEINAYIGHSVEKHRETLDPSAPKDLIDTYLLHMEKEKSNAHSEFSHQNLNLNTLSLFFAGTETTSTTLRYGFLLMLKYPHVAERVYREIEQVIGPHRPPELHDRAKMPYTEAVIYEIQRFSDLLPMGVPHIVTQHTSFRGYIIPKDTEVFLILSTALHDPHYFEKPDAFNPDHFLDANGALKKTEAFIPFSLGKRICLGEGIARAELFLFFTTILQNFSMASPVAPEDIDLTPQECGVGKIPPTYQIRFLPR

[31] = target: T1, Beta-3 adrenergic receptor; experiment: Agonist activity at human adrenergic beta3 receptor expressed in CHO cells assessed as accumulation of cAMP after 30 mins by TR-FRET assay in presence of 40% serum relative to (R)-(-)-isoproterenol; format: functional, cell-based
Target sequence in this assay (P13945 whole entry, looked up): as the sequence (P13945 whole entry) above

Cytochrome P450 2C8 = Cytochrome P450 2C8 (Homo sapiens, UniProt P10632); experiment: Inhibition of CYP2C8 in human liver microsomes; format: ADME
Cytochrome P450 2C8, sequence (P10632 whole entry, the tested form may be a part): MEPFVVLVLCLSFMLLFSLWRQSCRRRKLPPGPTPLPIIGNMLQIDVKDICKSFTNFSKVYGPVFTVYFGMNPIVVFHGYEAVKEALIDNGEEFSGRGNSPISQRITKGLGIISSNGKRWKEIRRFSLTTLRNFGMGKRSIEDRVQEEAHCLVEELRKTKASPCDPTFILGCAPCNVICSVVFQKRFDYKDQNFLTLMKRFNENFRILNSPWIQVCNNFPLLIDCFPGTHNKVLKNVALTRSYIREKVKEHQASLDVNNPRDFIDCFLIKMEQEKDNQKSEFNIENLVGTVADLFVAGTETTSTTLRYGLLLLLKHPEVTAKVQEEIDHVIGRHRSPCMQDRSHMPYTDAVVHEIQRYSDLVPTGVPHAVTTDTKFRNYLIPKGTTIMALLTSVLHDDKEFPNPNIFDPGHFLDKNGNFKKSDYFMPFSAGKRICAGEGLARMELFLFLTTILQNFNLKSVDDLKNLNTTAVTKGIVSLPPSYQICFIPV

Rattus norvegicus [32] = experiment: Increase in circulating free fatty acid level in iv infused Sprague-Dawley rat after 45 mins by liquid chromatography-tandem mass spectrometric analysis; format: functional
Rattus norvegicus [33] = experiment: Unbound clearance in rat at 1 mg/kg, iv or 2 mg/kg, po; format: ADME, organism-based; conditions: in vivo
Cytochrome P450 2C19 = Cytochrome P450 2C19 (Homo sapiens, UniProt P33261); experiment: Inhibition of CYP2C19 in human liver microsomes; format: ADME
Cytochrome P450 2C19, sequence (P33261 whole entry): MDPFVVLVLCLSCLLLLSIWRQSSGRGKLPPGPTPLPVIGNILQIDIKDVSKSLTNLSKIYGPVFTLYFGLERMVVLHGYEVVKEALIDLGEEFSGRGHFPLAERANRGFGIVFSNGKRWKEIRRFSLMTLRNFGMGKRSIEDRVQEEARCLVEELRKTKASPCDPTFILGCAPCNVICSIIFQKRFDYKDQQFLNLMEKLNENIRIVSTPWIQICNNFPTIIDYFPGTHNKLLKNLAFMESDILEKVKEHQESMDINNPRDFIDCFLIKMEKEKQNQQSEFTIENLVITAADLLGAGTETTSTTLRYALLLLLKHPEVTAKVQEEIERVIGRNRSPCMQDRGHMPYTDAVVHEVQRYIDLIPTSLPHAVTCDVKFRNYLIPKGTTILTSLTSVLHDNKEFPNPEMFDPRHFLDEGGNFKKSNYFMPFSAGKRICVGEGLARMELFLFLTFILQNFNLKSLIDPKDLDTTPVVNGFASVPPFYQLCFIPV

[34] = Stability in human plasma assessed as parent compound remaining at 24 hrs by LC-MS analysis; format: ADME, cell-free; conditions: read-out: Stability
Cytochrome P450 3A4 [35] = target: T2, Cytochrome P450 3A4; experiment: Induction of CYP3A4 activity in human hepatocytes up to 10 uM; format: ADME, cell-based, Hepatocyte
[36] = Half life in dog at 0.5 mg/kg, iv or 2 mg/kg, po; format: ADME, organism-based, Canis lupus familiaris; conditions: in vivo
Cynomolgus monkey [37] = experiment: Unbound clearance in cynomolgus monkey at 0.5 mg/kg, iv or 2 mg/kg, po; format: ADME, organism-based, Macaca fascicularis; conditions: in vivo

Beta-3 adrenergic receptor (Macaca mulatta, UniProt Q28524), sequence (Q28524 whole entry): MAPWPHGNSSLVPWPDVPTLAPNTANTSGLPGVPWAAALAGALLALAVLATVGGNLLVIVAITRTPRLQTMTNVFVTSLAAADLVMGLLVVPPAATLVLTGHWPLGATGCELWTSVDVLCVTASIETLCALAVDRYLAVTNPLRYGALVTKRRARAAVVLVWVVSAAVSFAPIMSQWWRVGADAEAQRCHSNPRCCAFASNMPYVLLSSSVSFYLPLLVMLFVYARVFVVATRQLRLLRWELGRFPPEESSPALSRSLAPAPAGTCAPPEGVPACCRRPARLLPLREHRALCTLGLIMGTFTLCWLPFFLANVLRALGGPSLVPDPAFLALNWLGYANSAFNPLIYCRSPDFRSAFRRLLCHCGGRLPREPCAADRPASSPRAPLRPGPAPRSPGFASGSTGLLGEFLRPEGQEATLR

Structure (SMILES): O=C(Nc1ccc(C[C@@H]2CC[C@H]([C@H](O)c3ccccc3)N2)cc1)[C@@H]1CCc2nccc(=O)n21 [VIBEGRON]
- bioavailability [1]: 20%
- EC50 [2]: 0.00057 µM
- dose excreted at 48 h [3]: 37%
- CLint scaled [4]: 13 mL/min/kg
- clearance [5]: 20 mL/min/kg
- solubility [6]: > 4000 µg/mL
- dose excreted at 48 h [7]: 13%
- fAUC/dose (Canis familiaris [8]): 490 nM·h/mg/kg
- AUC/dose (Rattus norvegicus [9]): 540 nM·h/mg/kg
- Activity (Cynomolgus monkey [10]): Non-toxic
- AC50 [11]: > 70 µM
- Stability [12]: Stable
- clearance [13]: 15 mL/min/kg
- dose excreted at 48 h [14]: 33%
- max activation [15]: 83%
- remaining at 24 h [16]: 100%
- dose excreted at 48 h [17]: 36%
- CLint scaled [18]: 20 mL/min/kg
- EC50 [19]: 0.0016 µM
- CLint scaled [20]: 18 mL/min/kg
- IC50 [21]: > 30 µM
- dose excreted at 48 h [22]: 19%
- EC50 [23]: 0.122 µM
- AUC/dose (Canis familiaris [24]): 1200 nM·h/mg/kg
- fAUC/dose (Rhesus monkey): 260 nM·h/mg/kg
- EC50 [25]: 0.011 µM
- AUC/dose (Cynomolgus monkey [26]): 870 nM·h/mg/kg
- IC50 [27]: > 30 µM
- bioavailability [28]: 46%
- half-life [29]: 14 h
- IC50 (Cytochrome P450 3A4 [30]): > 100 µM
- IC50 (Cytochrome P450 2B6): > 100 µM
- max activation [31]: 101%
- IC50 (Cytochrome P450 2C8): > 100 µM
- Activity (Rattus norvegicus [32]): Dose-dependent effect
- minimal effective dose (Rattus norvegicus [32]; 0.75 h, read-out: MED): 0.3 mg/kg
- CL free (Rattus norvegicus [33]): 67 mL/min/kg
- IC50 (Cytochrome P450 2C19): > 100 µM
- remaining at 24 h [34]: 100%
- Activity (Cytochrome P450 3A4 [35]): Not Active
- half-life [36]: 13 h
- CL free (Cynomolgus monkey [37]): 34 mL/min/kg
